This note sets out measurements from patent US11878965B2, “Inhibitors of peptidylarginine deiminases” (Gilead Sciences, Inc., priority 2020, dated 2024).

This test deals with human PAD4 (Homo sapiens (Human), UniProt Q9UM07). Description: In Vitro PAD4 BAEE Biochemical Assay. As to conditions: human PAD4, BAEE substrate; 5 nM PAD4, 2 mM calcium chloride, 3 mM BAEE; geometric mean of multiple experiments. Summed up: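 Recombinant human PAD4 (His-SUMO tag removed, E. coli-expressed), 5 nM, preincubated with compound and 2 mM CaCl2 30 min at 25 °C in MOPS pH 7.6 with DTT; 3 mM BAEE added for 2 h at 25 °C, EDTA stop. Released ammonia detected by o-phthalaldehyde/DTT fluorescence (ex 405, em 535 nm).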
Chain of human PAD4 (Q9UM07 2-663): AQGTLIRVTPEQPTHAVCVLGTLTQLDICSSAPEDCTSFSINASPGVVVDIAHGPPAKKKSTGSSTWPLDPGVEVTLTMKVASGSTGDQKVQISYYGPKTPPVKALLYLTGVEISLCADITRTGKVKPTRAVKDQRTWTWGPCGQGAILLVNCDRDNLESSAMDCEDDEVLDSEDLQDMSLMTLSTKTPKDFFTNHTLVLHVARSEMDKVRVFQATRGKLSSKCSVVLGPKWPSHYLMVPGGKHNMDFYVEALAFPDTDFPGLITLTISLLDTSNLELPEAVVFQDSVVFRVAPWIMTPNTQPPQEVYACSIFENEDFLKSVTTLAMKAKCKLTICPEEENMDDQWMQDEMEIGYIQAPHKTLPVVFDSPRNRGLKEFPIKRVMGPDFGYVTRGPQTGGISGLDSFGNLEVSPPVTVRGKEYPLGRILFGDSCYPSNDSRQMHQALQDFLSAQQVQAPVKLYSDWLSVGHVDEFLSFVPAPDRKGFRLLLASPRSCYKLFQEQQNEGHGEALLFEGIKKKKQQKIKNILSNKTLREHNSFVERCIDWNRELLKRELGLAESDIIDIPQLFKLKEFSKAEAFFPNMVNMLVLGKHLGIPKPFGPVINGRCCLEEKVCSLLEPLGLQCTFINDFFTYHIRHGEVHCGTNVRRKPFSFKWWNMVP
As to `[2H][C@]1(N)CCCN(C(=O)c2cc(OC)c3c(c2)nc(-c2cc4ccc(N(C(F)F)S(C)(=O)=O)nc4n2CC2CC2)n3C)C1` [Example 46, (S)-N-(2-(5-(3-aminopiperidine-1-carbonyl-3-d)-7-methoxy-1-methyl-1H-benzo[d]imidazol-2-yl)-1-(cyclopropylmethyl)-1H-pyrrolo[2,3-b]pyridin-6-yl)-N-(difluoromethyl) methanesulfonamide], the IC50 was found to be 1160 nM.

As to `COc1cc(C(=O)N2CCC[C@@H](N)[C@H]2C)cc2nc(-c3cc4ccc(N(C)S(C)(=O)=O)nc4n3C3CC3)n(C)c12` [Example 47, N-(2-(5-((2R,3R)-3-amino-2-methylpiperidine-1-carbonyl)-7-methoxy-1-methyl-1H-benzo[d]imidazol-2-yl)-1-cyclopropyl-1H-pyrrolo[2,3-b]pyridin-6-yl)-N-methylmethanesulfonamide], the IC50 stood at 1730 nM. With `COc1cc(C(=O)N2C[C@H](N)CC[C@@H]2C)cc2nc(-c3cc4ccc(N(C(F)F)S(C)(=O)=O)nc4n3CC3CC3)n(C34CC(C3)C4)c12` [Example 48, N-(2-(5-((2S,5R)-5-amino-2-methylpiperidine-1-carbonyl)-1-(bicyclo[1.1.1]pentan-1-yl)-7-methoxy-1H-benzo[d]imidazol-2-yl)-1-(cyclopropylmethyl)-1H-pyrrolo[2,3-b]pyridin-6-yl)-N-(difluoromethyl) methane sulfonamide] the figure was 2130 nM; with `COc1cc(C(=O)N2CCC[C@@H](N)[C@H]2C)cc2nc(-c3cc4ccc(N(C)S(C)(=O)=O)nc4n3C3CC3)n(CC3CC3)c12` [Example 49, N-(2-(5-((2R,3R)-3-amino-2-methylpiperidine-1-carbonyl)-1-(cyclopropylmethyl)-7-methoxy-1H-benzo[d]imidazol-2-yl)-1-cyclopropyl-1H-pyrrolo[2,3-b]pyridin-6-yl)-N-methylmethanesulfonamide], 487 nM.

Take `COc1cc(C(=O)N2[C@@H]3CC[C@@H](N)[C@H]2CC3)cc2nc(-c3cc4ccc(N(C(F)F)S(C)(=O)=O)nc4n3CC3CC3)n(C3CC3)c12` [Example 50, N-(2-(5-((1R,2R,5R)-2-amino-8-azabicyclo[3.2.1]octane-8-carbonyl)-1-cyclopropyl-7-methoxy-1H-benzo[d]imidazol-2-yl)-1-(cyclopropylmethyl)-1H-pyrrolo [2,3-b]pyridin-6-yl)-N-(difluoromethyl) methanesulfonamide]: the IC50 stood at 145 nM.

With `COc1cc(C(=O)N2CC[C@@H](O)[C@@H](N)C2)cc2nc(-c3cc4ccc(N(C(F)F)S(C)(=O)=O)nc4n3CC3CC3)n(C)c12` [Example 51, N-(2-(5-((3S,4R)-3-amino-4-hydroxypiperidine-1-carbonyl)-7-methoxy-1-methyl-1H-benzo[d]imidazol-2-yl)-1-(cyclopropylmethyl)-1H-pyrrolo [2,3-b]pyridin-6-yl)-N-(difluoromethyl) methanesulfonamide], the IC50 worked out at 141 nM. Turning to `COc1cc(C(=O)N2CCCC(C)(N)C2)cc2nc(-c3cc4ccc(N(C(F)F)S(C)(=O)=O)nc4n3CC3CC3)n(C)c12` (centres unmarked) [Example 52, N-(2-(5-(3-amino-3-methylpiperidine-1-carbonyl)-7-methoxy-1-methyl-1H-benzo[d]imidazol-2-yl)-1-(cyclopropylmethyl)-1H-pyrrolo [2,3-b]pyridin-6-yl)-N-(difluoromethyl) methanesulfonamide], the IC50 is 12700 nM. The value for `CS(=O)(=O)N(c1ccc2cc(-c3nc4cc(C(=O)N5CCC[C@@H](N)C5)ccc4n3C3CC3)n(CC3CC3)c2n1)C(F)F` [Example 54, (R)-N-(2-(5-(3-aminopiperidine-1-carbonyl)-1-cyclopropyl-1H-benzo[d]imidazol-2-yl)-1-(cyclopropylmethyl)-1H-pyrrolo[2,3-b]pyridin-6-yl)-N-(difluoromethyl) methanesulfonamide] was 37.4 nM; that for `CS(=O)(=O)N(c1ccc2cc(-c3nc4cc(C(=O)N5C[C@H]6CC[C@@H]5[C@@H]6N)ccc4n3C3CC3)n(CC3CC3)c2n1)C(F)F` [Example 55, N-(2-(5-((1R,4R,7R)-7-amino-2-azabicyclo[2.2.1]heptane-2-carbonyl)-1-cyclopropyl-1H-benzo[d]imidazol-2-yl)-1-(cyclopropylmethyl)-1H-pyrrolo[2,3-b]pyridin-6-yl)-N-(difluoromethyl) methanesulfonamide] was 89.6 nM. With `CS(=O)(=O)N(c1ccc2cc(-c3nc4cc(C(=O)N5[C@@H]6CC[C@@H](N)[C@H]5CC6)ccc4n3C3CC3)n(CC3CC3)c2n1)C(F)F` [Example 56, N-(2-(5-((1R,2R,5R)-2-amino-8-azabicyclo[3.2.1]octane-8-carbonyl)-1-cyclopropyl-1H-benzo[d]imidazol-2-yl)-1-(cyclopropylmethyl)-1H-pyrrolo[2,3-b]pyridin-6-yl)-N-(difluoromethyl) methanesulfonamide] the figure was 36.2 nM. With `Cc1cc2c(cc1C(=O)N1C[C@H]3CC[C@@H]1[C@@H]3N)nc(-c1cc3ccc(N(C(F)F)S(C)(=O)=O)nc3n1CC1CC1)n2C` [Example 57, N-(2-(5-((1R,4R,7R)-7-amino-2-azabicyclo[2.2.1]heptane-2-carbonyl)-1,6-dimethyl-1H-benzo[d]imidazol-2-yl)-1-(cyclopropylmethyl)-1H-pyrrolo[2,3-b]pyridin-6-yl)-N-(difluoromethyl) methanesulfonamide] the figure was 11200 nM.

On to `Cc1cc2c(cc1C(=O)N1CCC[C@@H](N)C1)nc(-c1cc3ccc(N(C(F)F)S(C)(=O)=O)nc3n1CC1CC1)n2C` [Example 58, (R)-N-(2-(5-(3-aminopiperidine-1-carbonyl)-1,6-dimethyl-1H-benzo[d]imidazol-2-yl)-1-(cyclopropylmethyl)-1H-pyrrolo [2,3-b]pyridin-6-yl)-N-(difluoromethyl) methanesulfonamide], for which the IC50 came out at 4340 nM. The value for `Cc1cc2c(cc1C(=O)N1C[C@H]3CC[C@@H]1[C@@H]3N)nc(-c1cc3ccc(N(C(F)F)S(C)(=O)=O)nc3n1CC1CC1)n2C1CC1` [Example 59, N-(2-(5-((1R,4R,7R)-7-amino-2-azabicyclo[2.2.1]heptane-2-carbonyl)-1-cyclopropyl-6-methyl-1H-benzo[d]imidazol-2-yl)-1-(cyclopropylmethyl)-1H-pyrrolo [2,3-b]pyridin-6-yl)-N-(difluoromethyl) methanesulfonamide] was 9410 nM; that for `Cc1cc2c(cc1C(=O)N1CCC[C@@H](N)C1)nc(-c1cc3ccc(N(C(F)F)S(C)(=O)=O)nc3n1CC1CC1)n2C1CC1` [Example 60, (R)-N-(2-(5-(3-aminopiperidine-1-carbonyl)-1-cyclopropyl-6-methyl-1H-benzo[d]imidazol-2-yl)-1-(cyclopropylmethyl)-1H-pyrrolo[2,3-b]pyridin-6-yl)-N-(difluoromethyl) methanesulfonamide] was 2210 nM. With `COc1cc(C(=O)N2C[C@@H]3CC[C@@](N)(C3)C2)cc2nc(-c3cc4ccc(N(C(F)F)S(C)(=O)=O)nc4n3CC3CC3)n(C)c12` [Example 61, N-(2-(5-((1R,5R)-1-amino-3-azabicyclo[3.2.1]octane-3-carbonyl)-7-methoxy-1-methyl-1H-benzo[d]imidazol-2-yl)-1-(cyclopropylmethyl)-1H-pyrrolo[2,3-b]pyridin-6-yl)-N-(difluoromethyl) methanesulfonamide] the figure was 36800 nM; with `COc1cc(C(=O)N2[C@H]3CC[C@@H]2[C@H](N)C3)cc2nc(-c3cc4ccc(N(C(F)F)S(C)(=O)=O)nc4n3CC3CC3)n(C3CC3)c12` [Example 64, N-(2-(5-((1R,2R,4S)-2-amino-7-azabicyclo[2.2.1]heptane-7-carbonyl)-1-cyclopropyl-7-methoxy-1H-benzo[d]imidazol-2-yl)-1-(cyclopropylmethyl)-1H-pyrrolo [2,3-b]pyridin-6-yl)-N-(difluoromethyl) methanesulfonamide], 128 nM; with `CS(=O)(=O)N(c1ccc2cc(-c3nc4cc(C(=O)N5[C@H]6CC[C@@H]5[C@H](N)C6)ccc4n3C3CC3)n(CC3CC3)c2n1)C(F)F` [Example 65, N-(2-(5-((1R,2R,4S)-2-amino-7-azabicyclo[2.2.1]heptane-7-carbonyl)-1-cyclopropyl-1H-benzo[d]imidazol-2-yl)-1-(cyclopropylmethyl)-1H-pyrrolo[2,3-b]pyridin-6-yl)-N-(difluoromethyl) methanesulfonamide], 47 nM. With `COc1cc(C(=O)N2CCC3(CCC3N)C2)cc2nc(-c3cc4ccc(N(C(F)F)S(C)(=O)=O)nc4n3CC3CC3)n(C)c12` (centres unmarked) [Example 66, N-(2-(5-(1-amino-6-azaspiro[3.4]octane-6-carbonyl)-7-methoxy-1-methyl-1H-benzo[d]imidazol-2-yl)-1-(cyclopropylmethyl)-1H-pyrrolo[2,3-b]pyridin-6-yl)-N-(difluoromethyl) methanesulfonamide] the figure was 21700 nM; with `COc1cc(C(=O)N2CC3(CCNC3)C2)cc2nc(-c3cc4ccc(N(C(F)F)S(C)(=O)=O)nc4n3CC3CC3)n(C)c12` [Example 67, N-(1-(cyclopropylmethyl)-2-(7-methoxy-1-methyl-5-(2,6-diazaspiro[3.4]octane-2-carbonyl)-1H-benzo[d]imidazol-2-yl)-1H-pyrrolo[2,3-b]pyridin-6-yl)-N-(difluoromethyl) methanesulfonamide], 5080 nM. `COc1cc(C(=O)N2CCCC3(CCCCN3)C2)cc2nc(-c3cc4ccc(N(C(F)F)S(C)(=O)=O)nc4n3CC3CC3)n(C)c12` (centres unmarked) [Example 68, N-(1-(cyclopropylmethyl)-2-(7-methoxy-1-methyl-5-(1,8-diazaspiro[5.5]undecane-8-carbonyl)-1H-benzo[d]imidazol-2-yl)-1H-pyrrolo[2,3-b]pyridin-6-yl)-N-(difluoromethyl) methanesulfonamide]: the half-maximal inhibitory concentration (IC50) was found to be 50000 nM.

As usually defined, the IC50 is the concentration at which inhibition is half-maximal.
